Test results reported in BindingDB's records for patent US20190276450 (Abbvie, 2019).

Target: Tyrosine-protein kinase JAK2 (Homo sapiens, UniProt O60674)
Test: JAK2 (PSTAT5 UT7) Alpha Screen Assay
Protocol: (§1) Erythropoietin (EPO) is known to transduce its signal through EPO receptor via Jak2. Activity against Jak2 was therefore measured by determining inhibition of EPO induced phosphorylation of STATS in UT7 cells. From these tests, the EC50 (effective concentration for 50% maximal response) values were determined in 1 μM for the test compounds.

Tyrosine-protein kinase JAK2, sequence (O60674 whole entry): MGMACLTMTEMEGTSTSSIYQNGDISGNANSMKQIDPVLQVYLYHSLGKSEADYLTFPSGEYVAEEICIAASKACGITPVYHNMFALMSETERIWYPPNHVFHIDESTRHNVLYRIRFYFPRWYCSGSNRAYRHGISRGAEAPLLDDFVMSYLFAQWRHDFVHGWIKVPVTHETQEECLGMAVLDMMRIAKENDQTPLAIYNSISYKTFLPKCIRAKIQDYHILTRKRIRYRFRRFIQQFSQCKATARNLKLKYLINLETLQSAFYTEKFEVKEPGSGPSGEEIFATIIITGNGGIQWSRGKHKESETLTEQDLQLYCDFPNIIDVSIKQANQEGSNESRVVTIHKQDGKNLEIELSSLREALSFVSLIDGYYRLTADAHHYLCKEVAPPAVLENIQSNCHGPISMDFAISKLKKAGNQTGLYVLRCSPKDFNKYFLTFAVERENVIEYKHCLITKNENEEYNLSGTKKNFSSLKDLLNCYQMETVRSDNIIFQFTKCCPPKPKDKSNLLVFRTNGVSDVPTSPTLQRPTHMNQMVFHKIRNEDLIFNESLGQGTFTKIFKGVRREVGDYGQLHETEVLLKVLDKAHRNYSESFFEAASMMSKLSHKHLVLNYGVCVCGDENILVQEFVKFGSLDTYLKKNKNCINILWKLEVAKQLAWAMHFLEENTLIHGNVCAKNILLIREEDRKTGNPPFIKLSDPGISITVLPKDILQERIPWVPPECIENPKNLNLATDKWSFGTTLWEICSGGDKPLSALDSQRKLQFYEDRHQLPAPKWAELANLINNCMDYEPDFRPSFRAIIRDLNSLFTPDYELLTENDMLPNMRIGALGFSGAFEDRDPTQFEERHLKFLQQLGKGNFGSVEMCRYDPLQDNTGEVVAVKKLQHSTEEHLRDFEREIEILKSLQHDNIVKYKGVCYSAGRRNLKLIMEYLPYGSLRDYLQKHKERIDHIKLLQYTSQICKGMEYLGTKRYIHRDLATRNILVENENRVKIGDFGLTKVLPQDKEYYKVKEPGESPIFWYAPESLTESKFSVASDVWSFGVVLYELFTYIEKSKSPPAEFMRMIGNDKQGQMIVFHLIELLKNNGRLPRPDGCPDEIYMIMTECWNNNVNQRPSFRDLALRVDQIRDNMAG

EC50 [µM] | Compound
> 25 | CC[C@@]1(c2cccc(-c3cn(C)c4cnc(NC(N)=O)cc34)n2)CCOC1 [US20190276450, Example 3.2]
> 25 | COCCOc1cc(-c2cn(C)c3cnc(NC(C)=O)cc23)nc([C@]2(OC)CCOC2)c1 [US20190276450, Example 25]
> 25 | Cn1cc(-c2cncc([C@]3(C)CCOC3)n2)c2cc(NC(N)=O)ncc21 [US20190276450, Example 1b.5]
> 25 | CO[C@@]1(c2cc(C(F)F)cc(-c3cn(C)c4cnc(NC(=O)CO)cc34)n2)CCOC1 [US20190276450, Example 26]
> 25 | Cn1cc(-c2cncc([C@@]3(C)CCOC3)n2)c2cc(NC(N)=O)ncc21 [US20190276450, Example 1b.6]
> 25 | CO[C@@]1(c2cncc(-c3cn(C)c4cnc(NC(N)=O)cc34)n2)CCOC1 [US20190276450, Example 12]
> 25 | COCc1cc(-c2cn(C)c3cnc(NC(N)=O)cc23)nc([C@]2(OC)CCOC2)c1 [US20190276450, Example 3]
> 25 | CO[C@@]1(c2cc(C)cc(-c3cn(C)c4cnc(NC(C)=O)cc34)n2)CCOC1 [US20190276450, Example 2.2]
> 25 | CC[C@]1(c2cc(C#N)cc(-c3cn(C)c4cnc(NC(C)=O)cc34)n2)CCOC1 [US20190276450, Example 2.11]
> 25 | CO[C@@]1(c2cc(C#N)cc(-c3cn([C@@H]4CC4(F)F)c4cnc(NC(C)=O)cc34)n2)CCOC1 [US20190276450, Example 2a.3]
> 25 | CO[C@@]1(c2cc(C(F)F)cc(-c3cn(C)c4cnc(NC(C)=O)cc34)n2)CCOC1 [US20190276450, Example 2.8]
> 25 | COc1cc(-c2cn(C)c3cnc(NC(C)=O)cc23)nc([C@]2(CO)CCOC2)c1 [US20190276450, Example 22.6]
> 25 | COCc1cc(-c2cn(C3COC3)c3cnc(NC(C)=O)cc23)nc([C@]2(OC)CCOC2)c1 [US20190276450, Example 4]
> 25 | COCc1cc(-c2cn(C)c3cnc(NC(=O)CO)cc23)nc([C@]2(OC)CCOC2)c1 [US20190276450, Example 24]
> 25 | CO[C@@]1(c2cc(OCC3COC3)cc(-c3cn(C)c4cnc(NC(C)=O)cc34)n2)CCOC1 [US20190276450, Example 6]
> 25 | CO[C@@]1(c2cc(C(F)F)cc(-c3cn(C4COC4)c4cnc(NC(C)=O)cc34)n2)CCOC1 [US20190276450, Example 4.3]
> 25 | CO[C@@]1(c2cc(OC[C@H](C)O)cc(-c3cn(C)c4cnc(NC(C)=O)cc34)n2)CCOC1 [US20190276450, Example 14.5]
> 25 | CO[C@@]1(c2cc(O[C@H]3C[C@H](O)C3)cc(-c3cn(C)c4cnc(NC(C)=O)cc34)n2)CCOC1 [US20190276450, Example 11]
> 25 | CO[C@@]1(c2cccc(-c3cn([C@@H]4CC4(F)F)c4cnc(NC(N)=O)cc34)n2)CCOC1 [US20190276450, Example 1.2]
> 25 | CC(=O)Nc1cc2c(-c3cc(C(F)F)cc([C@]4(CO)CCOC4)n3)cn(C)c2cn1 [US20190276450, Example 22.5]
> 25 | CO[C@@]1(c2cc(OCCO)cc(-c3cn(C)c4cnc(NC(C)=O)cc34)n2)CCOC1 [US20190276450, Example 10]
> 25 | CO[C@@]1(c2cc(C#N)cc(-c3cn(C)c4cnc(NC(N)=O)cc34)n2)CCOC1 [US20190276450, Example 12.3]
> 25 | COCc1cc(-c2cn(C)c3cnc(NC(C)=O)cc23)nc([C@@]2(CO)CCOC2)c1 [US20190276450, Example 22a]

Target: Tyrosine-protein kinase JAK1 (Homo sapiens, UniProt P23458)
Test: JAK1 (PSTAT3 TF1) Alpha Screen Assay
Protocol: as §1, with “IL-6” for “Erythropoietin (EPO)”, “IL-6” for “EPO”, “Jak1.” for “Jak2.”, “Jak” for “Jak2”, “STAT3” for “STATS”, “TF1” for “UT7”

Tyrosine-protein kinase JAK1, sequence (P23458 whole entry): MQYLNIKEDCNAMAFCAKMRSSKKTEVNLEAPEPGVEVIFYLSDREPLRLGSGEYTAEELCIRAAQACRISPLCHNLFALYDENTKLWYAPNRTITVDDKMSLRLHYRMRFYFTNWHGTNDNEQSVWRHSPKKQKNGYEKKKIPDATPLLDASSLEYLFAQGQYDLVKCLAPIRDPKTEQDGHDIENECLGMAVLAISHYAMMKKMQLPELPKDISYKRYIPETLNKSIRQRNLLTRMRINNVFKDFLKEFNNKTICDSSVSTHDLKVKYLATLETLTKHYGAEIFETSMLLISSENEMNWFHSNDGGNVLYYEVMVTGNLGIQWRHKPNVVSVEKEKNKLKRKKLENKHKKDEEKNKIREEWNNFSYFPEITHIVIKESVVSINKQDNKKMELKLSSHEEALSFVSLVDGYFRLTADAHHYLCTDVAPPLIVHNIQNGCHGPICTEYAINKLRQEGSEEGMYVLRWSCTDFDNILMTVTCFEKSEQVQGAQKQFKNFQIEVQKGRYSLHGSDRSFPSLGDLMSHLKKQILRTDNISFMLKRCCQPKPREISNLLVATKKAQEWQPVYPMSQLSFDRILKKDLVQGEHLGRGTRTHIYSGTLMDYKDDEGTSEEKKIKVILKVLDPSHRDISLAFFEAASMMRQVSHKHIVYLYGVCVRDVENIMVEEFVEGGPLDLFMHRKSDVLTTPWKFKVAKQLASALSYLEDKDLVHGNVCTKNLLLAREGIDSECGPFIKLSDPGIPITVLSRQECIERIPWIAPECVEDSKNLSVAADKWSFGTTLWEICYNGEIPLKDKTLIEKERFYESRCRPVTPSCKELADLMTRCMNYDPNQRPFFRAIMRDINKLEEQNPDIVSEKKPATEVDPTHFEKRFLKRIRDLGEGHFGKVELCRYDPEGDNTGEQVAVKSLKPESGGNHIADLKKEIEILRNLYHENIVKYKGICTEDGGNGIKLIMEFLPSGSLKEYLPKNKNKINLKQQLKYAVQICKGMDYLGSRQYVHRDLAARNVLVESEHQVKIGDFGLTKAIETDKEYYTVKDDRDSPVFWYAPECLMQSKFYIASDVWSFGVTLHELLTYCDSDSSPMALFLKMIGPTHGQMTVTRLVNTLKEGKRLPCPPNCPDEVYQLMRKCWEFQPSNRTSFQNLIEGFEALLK

EC50 [µM] | Compound
3.4 | CC[C@@]1(c2cccc(-c3cn(C)c4cnc(NC(N)=O)cc34)n2)CCOC1 [US20190276450, Example 3.2]
49 | COCCOc1cc(-c2cn(C)c3cnc(NC(C)=O)cc23)nc([C@]2(OC)CCOC2)c1 [US20190276450, Example 25]
1.5 | Cn1cc(-c2cncc([C@]3(C)CCOC3)n2)c2cc(NC(N)=O)ncc21 [US20190276450, Example 1b.5]
> 25 | CO[C@@]1(c2cc(C(F)F)cc(-c3cn(C)c4cnc(NC(=O)CO)cc34)n2)CCOC1 [US20190276450, Example 26]
4.2 | Cn1cc(-c2cncc([C@@]3(C)CCOC3)n2)c2cc(NC(N)=O)ncc21 [US20190276450, Example 1b.6]
16.2 | CO[C@@]1(c2cncc(-c3cn(C)c4cnc(NC(N)=O)cc34)n2)CCOC1 [US20190276450, Example 12]
18 | COCc1cc(-c2cn(C)c3cnc(NC(N)=O)cc23)nc([C@]2(OC)CCOC2)c1 [US20190276450, Example 3]
41 | CO[C@@]1(c2cc(C)cc(-c3cn(C)c4cnc(NC(C)=O)cc34)n2)CCOC1 [US20190276450, Example 2.2]
7.5 | CC[C@]1(c2cc(C#N)cc(-c3cn(C)c4cnc(NC(C)=O)cc34)n2)CCOC1 [US20190276450, Example 2.11]
56 | CO[C@@]1(c2cc(C#N)cc(-c3cn([C@@H]4CC4(F)F)c4cnc(NC(C)=O)cc34)n2)CCOC1 [US20190276450, Example 2a.3]
17 | CO[C@@]1(c2cc(C(F)F)cc(-c3cn(C)c4cnc(NC(C)=O)cc34)n2)CCOC1 [US20190276450, Example 2.8]
11.1 | COc1cc(-c2cn(C)c3cnc(NC(C)=O)cc23)nc([C@]2(CO)CCOC2)c1 [US20190276450, Example 22.6]
> 100 | COCc1cc(-c2cn(C3COC3)c3cnc(NC(C)=O)cc23)nc([C@]2(OC)CCOC2)c1 [US20190276450, Example 4]
> 100 | COCc1cc(-c2cn(C)c3cnc(NC(=O)CO)cc23)nc([C@]2(OC)CCOC2)c1 [US20190276450, Example 24]
21 | CO[C@@]1(c2cc(OCC3COC3)cc(-c3cn(C)c4cnc(NC(C)=O)cc34)n2)CCOC1 [US20190276450, Example 6]
54 | CO[C@@]1(c2cc(C(F)F)cc(-c3cn(C4COC4)c4cnc(NC(C)=O)cc34)n2)CCOC1 [US20190276450, Example 4.3]
71 | CO[C@@]1(c2cc(OC[C@H](C)O)cc(-c3cn(C)c4cnc(NC(C)=O)cc34)n2)CCOC1 [US20190276450, Example 14.5]
23 | CO[C@@]1(c2cc(O[C@H]3C[C@H](O)C3)cc(-c3cn(C)c4cnc(NC(C)=O)cc34)n2)CCOC1 [US20190276450, Example 11]
13.5 | CO[C@@]1(c2cccc(-c3cn([C@@H]4CC4(F)F)c4cnc(NC(N)=O)cc34)n2)CCOC1 [US20190276450, Example 1.2]
7.05 | CC(=O)Nc1cc2c(-c3cc(C(F)F)cc([C@]4(CO)CCOC4)n3)cn(C)c2cn1 [US20190276450, Example 22.5]
27 | CO[C@@]1(c2cc(OCCO)cc(-c3cn(C)c4cnc(NC(C)=O)cc34)n2)CCOC1 [US20190276450, Example 10]
13 | CO[C@@]1(c2cc(C#N)cc(-c3cn(C)c4cnc(NC(N)=O)cc34)n2)CCOC1 [US20190276450, Example 12.3]

Target: Non-receptor tyrosine-protein kinase TYK2 (Homo sapiens, UniProt P29597)
Test: TYK2 (TYK2/JAK2 PSTAT4 T-BLAST) Alpha Screen Assay
Protocol: IL-12 is known to transduce its signal through IL-12 receptor via Jak2 and/or Tyk2. For that reason, the activity against Tyk2/Jak2 was measured by determining the inhibition of IL-12 induced phosphorylation of STAT4 in T-blast cells. […] See, e.g., Sohn et al., J. Immunology (2013) 2205-2216.

Non-receptor tyrosine-protein kinase TYK2, sequence (P29597 whole entry): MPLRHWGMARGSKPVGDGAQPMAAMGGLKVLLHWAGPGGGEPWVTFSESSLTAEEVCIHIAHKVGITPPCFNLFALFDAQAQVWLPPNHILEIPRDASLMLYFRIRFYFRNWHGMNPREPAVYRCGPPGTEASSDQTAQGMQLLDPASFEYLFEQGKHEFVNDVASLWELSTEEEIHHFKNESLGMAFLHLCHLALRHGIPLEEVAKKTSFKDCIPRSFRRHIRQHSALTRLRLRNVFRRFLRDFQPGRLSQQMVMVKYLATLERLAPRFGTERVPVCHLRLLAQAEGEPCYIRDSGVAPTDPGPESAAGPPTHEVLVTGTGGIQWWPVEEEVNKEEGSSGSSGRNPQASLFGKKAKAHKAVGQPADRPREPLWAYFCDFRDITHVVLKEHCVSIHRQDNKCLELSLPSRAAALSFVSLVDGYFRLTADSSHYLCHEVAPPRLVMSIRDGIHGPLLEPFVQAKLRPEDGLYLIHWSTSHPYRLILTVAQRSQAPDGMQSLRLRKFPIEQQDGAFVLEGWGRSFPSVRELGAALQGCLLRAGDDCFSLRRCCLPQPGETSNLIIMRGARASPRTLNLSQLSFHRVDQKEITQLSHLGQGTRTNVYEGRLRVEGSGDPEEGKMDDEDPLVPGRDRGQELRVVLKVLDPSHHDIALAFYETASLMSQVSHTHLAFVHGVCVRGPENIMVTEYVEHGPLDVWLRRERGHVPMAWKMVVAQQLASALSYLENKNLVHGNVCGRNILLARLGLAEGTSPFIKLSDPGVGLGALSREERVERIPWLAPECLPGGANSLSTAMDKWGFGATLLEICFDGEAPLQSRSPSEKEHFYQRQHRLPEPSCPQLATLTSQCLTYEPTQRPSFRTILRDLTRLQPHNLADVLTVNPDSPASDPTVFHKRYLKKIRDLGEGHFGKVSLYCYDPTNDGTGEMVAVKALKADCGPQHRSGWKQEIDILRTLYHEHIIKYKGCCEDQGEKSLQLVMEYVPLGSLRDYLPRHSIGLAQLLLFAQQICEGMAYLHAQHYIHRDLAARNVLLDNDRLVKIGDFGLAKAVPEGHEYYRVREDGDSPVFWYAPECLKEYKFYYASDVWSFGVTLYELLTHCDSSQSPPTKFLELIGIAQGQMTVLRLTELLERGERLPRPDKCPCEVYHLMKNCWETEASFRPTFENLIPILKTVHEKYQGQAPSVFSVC

EC50 [µM] | Compound
0.014 | CC[C@@]1(c2cccc(-c3cn(C)c4cnc(NC(N)=O)cc34)n2)CCOC1 [US20190276450, Example 3.2]
0.025 | COCCOc1cc(-c2cn(C)c3cnc(NC(C)=O)cc23)nc([C@]2(OC)CCOC2)c1 [US20190276450, Example 25]
0.018 | Cn1cc(-c2cncc([C@]3(C)CCOC3)n2)c2cc(NC(N)=O)ncc21 [US20190276450, Example 1b.5]
0.05 | CO[C@@]1(c2cc(C(F)F)cc(-c3cn(C)c4cnc(NC(=O)CO)cc34)n2)CCOC1 [US20190276450, Example 26]
0.195 | Cn1cc(-c2cncc([C@@]3(C)CCOC3)n2)c2cc(NC(N)=O)ncc21 [US20190276450, Example 1b.6]
0.244 | CO[C@@]1(c2cncc(-c3cn(C)c4cnc(NC(N)=O)cc34)n2)CCOC1 [US20190276450, Example 12]
0.035 | COCc1cc(-c2cn(C)c3cnc(NC(N)=O)cc23)nc([C@]2(OC)CCOC2)c1 [US20190276450, Example 3]
0.198 | CO[C@@]1(c2cc(C)cc(-c3cn(C)c4cnc(NC(C)=O)cc34)n2)CCOC1 [US20190276450, Example 2.2]
0.104 | CC[C@]1(c2cc(C#N)cc(-c3cn(C)c4cnc(NC(C)=O)cc34)n2)CCOC1 [US20190276450, Example 2.11]
0.127 | CO[C@@]1(c2cc(C#N)cc(-c3cn([C@@H]4CC4(F)F)c4cnc(NC(C)=O)cc34)n2)CCOC1 [US20190276450, Example 2a.3]
0.042 | CO[C@@]1(c2cc(C(F)F)cc(-c3cn(C)c4cnc(NC(C)=O)cc34)n2)CCOC1 [US20190276450, Example 2.8]
0.13 | COc1cc(-c2cn(C)c3cnc(NC(C)=O)cc23)nc([C@]2(CO)CCOC2)c1 [US20190276450, Example 22.6]
0.137 | COCc1cc(-c2cn(C3COC3)c3cnc(NC(C)=O)cc23)nc([C@]2(OC)CCOC2)c1 [US20190276450, Example 4]
0.092 | COCc1cc(-c2cn(C)c3cnc(NC(=O)CO)cc23)nc([C@]2(OC)CCOC2)c1 [US20190276450, Example 24]
0.05 | CO[C@@]1(c2cc(OCC3COC3)cc(-c3cn(C)c4cnc(NC(C)=O)cc34)n2)CCOC1 [US20190276450, Example 6]
0.174 | CO[C@@]1(c2cc(C(F)F)cc(-c3cn(C4COC4)c4cnc(NC(C)=O)cc34)n2)CCOC1 [US20190276450, Example 4.3]
0.146 | CO[C@@]1(c2cc(OC[C@H](C)O)cc(-c3cn(C)c4cnc(NC(C)=O)cc34)n2)CCOC1 [US20190276450, Example 14.5]
0.052 | CO[C@@]1(c2cc(O[C@H]3C[C@H](O)C3)cc(-c3cn(C)c4cnc(NC(C)=O)cc34)n2)CCOC1 [US20190276450, Example 11]
0.045 | CO[C@@]1(c2cccc(-c3cn([C@@H]4CC4(F)F)c4cnc(NC(N)=O)cc34)n2)CCOC1 [US20190276450, Example 1.2]
0.072 | CC(=O)Nc1cc2c(-c3cc(C(F)F)cc([C@]4(CO)CCOC4)n3)cn(C)c2cn1 [US20190276450, Example 22.5]
0.091 | CO[C@@]1(c2cc(OCCO)cc(-c3cn(C)c4cnc(NC(C)=O)cc34)n2)CCOC1 [US20190276450, Example 10]
0.094 | CO[C@@]1(c2cc(C#N)cc(-c3cn(C)c4cnc(NC(N)=O)cc34)n2)CCOC1 [US20190276450, Example 12.3]
1.2 | COCc1cc(-c2cn(C)c3cnc(NC(C)=O)cc23)nc([C@@]2(CO)CCOC2)c1 [US20190276450, Example 22a]
